MIC data for eight molecules are collected here from ChEMBL document CHEMBL1687784, “Frequency of spontaneous resistance to fosfomycin combined with different antibiotics in Pseudomonas aeruginosa” (2010).

In general, MIC refers to the least concentration at which growth counts as inhibited. Read a low MIC as greater potency.

The test system of assay [1] is Pseudomonas aeruginosa. The assay can be described thus: Antimicrobial activity against Pseudomonas aeruginosa PA14 by EUCAST method. In kind it is functional.
Assay [2] concerns Pseudomonas aeruginosa. The assay can be described thus: Antimicrobial activity against Pseudomonas aeruginosa PA14 mutS gene hypermutant by EUCAST method. In kind it is functional.

Values after ≈ are worked out from the molar mass of the structure shown.

In the case of `NCC[C@H](O)C(=O)N[C@@H]1C[C@H](N)[C@@H](O[C@H]2O[C@H](CN)[C@@H](O)[C@H](O)[C@H]2O)[C@H](O)[C@H]1O[C@H]1O[C@H](CO)[C@@H](O)[C@H](N)[C@H]1O` [AMIKACIN], the MIC with Pseudomonas aeruginosa [1] and against Pseudomonas aeruginosa [2] was 1 µg/mL (≈ 1.71 µM) each time.

With `CC(C)(O/N=C(\C(=O)N[C@@H]1C(=O)N2C(C(=O)[O-])=C(C[n+]3ccccc3)CS[C@H]12)c1csc(N)n1)C(=O)O` [CEFTAZIDIME], the MIC against Pseudomonas aeruginosa [1] and in the assay on Pseudomonas aeruginosa [2] was 1 µg/mL (≈ 1.83 µM) each time.

For `O=C(O)c1cn(C2CC2)c2cc(N3CCNCC3)c(F)cc2c1=O` [CIPROFLOXACIN], the MIC against Pseudomonas aeruginosa [1] and in the assay with Pseudomonas aeruginosa [2] was 0.1 µg/mL (≈ 0.302 µM) in each case.

For the molecule `C[C@@H]1O[C@@H]1P(=O)(O)O` [FOSFOMYCIN], the MIC in the assay on Pseudomonas aeruginosa [1] and in the assay on Pseudomonas aeruginosa [2] was 8 µg/mL (≈ 57.9 µM) in each case.

As for `C[C@@H](O)[C@H]1C(=O)N2C(C(=O)O)=C(SCCNC=N)C[C@H]12` [IMIPENEM ANHYDROUS], the MIC in the assay on Pseudomonas aeruginosa [1] and against Pseudomonas aeruginosa [2] was 0.5 µg/mL (≈ 1.67 µM) each time.

As to `C[C@@H](O)[C@H]1C(=O)N2C(C(=O)O)=C(S[C@@H]3CN[C@H](C(=O)N(C)C)C3)[C@H](C)[C@H]12` [MEROPENEM], the MIC in the assay on Pseudomonas aeruginosa [1] and against Pseudomonas aeruginosa [2] was 0.25 µg/mL (≈ 0.652 µM) in each case.

Turning to `NC[C@H]1O[C@H](O[C@H]2[C@H](O)[C@@H](O[C@H]3O[C@H](CO)[C@@H](O)[C@H](N)[C@H]3O)[C@H](N)C[C@@H]2N)[C@H](N)C[C@@H]1O` [TOBRAMYCIN], the MIC against Pseudomonas aeruginosa [1] and against Pseudomonas aeruginosa [2] was 1 µg/mL (≈ 2.14 µM) in each case.

Take COLISTIN: the minimal inhibitory concentration (MIC) against Pseudomonas aeruginosa [1] and against Pseudomonas aeruginosa [2] was 0.5 µg/mL throughout.
